Entries after “also recorded” stand apart in the source; their conditions may differ. Where a name gives a salt, the structure may show the parent alone. Read-outs that look alike come from different tables or passages of the source.
Tests used:
[1] = tested on: cisplatin-induced tactile allodynia; test: Cisplatin-induced tactile allodynia model, electronic von Frey (Examples 23, 24); assay type: in vivo, C57BL/6 mice; details: mice
[2] = tested on: morphine place preference; test: Morphine conditioned place preference, model of addiction (Example 25); details: mice
[3] = In vivo eye tissue levels 90 min after topical application in Tocrisolve emulsion (Examples 12-14); parameters: species or system New Zealand albino rabbits; details: for concentration at 90 min: male, New Zealand albino, 90 min post topical 50 μL Tocrisolve emulsion; for Penetration into the ocular tissues, in words (Example 14): topical Tocrisolve emulsion
Description: Conscious male New Zealand albino rabbits were used. The formulations were applied topically into the rabbits eyes (50 μL containing the equivalent of 250 μg CBD) in Tocrisolve® emulsion formulations as described in Example 11. The animals were sacrificed 90 min. after drug application and the eye tissues harvested for analysis.
The same procedure was followed as shown under Example 12. Additional CBD analogs were tested in this example. In this example the tissue levels of both free CBD and intact analog were determined.
Formulations: Fifty microlitres of 0.5% w/v CBD in Tocrisolve emulsion (Dose: 0.25 mg)
Animal model: Conscious male new Zealand albino rabbits, Duration of the study: 90 min.
Aqueous humor, Vitreous humor, Retina-Choroid and Iris-Ciliary bodies analysed for parent compound as well as CBD.
Formulations: Fifty microlitres of 0.5% w/v Tocrisolve emulsion formulations (Dose: 0.25 mg)
Animal model: Conscious male new Zealand albino rabbits, Duration of the study: 90 min

[4] = assay type: physicochemical; details: for Concentration of CBD / Concentration of Δ^9-THC: CBD incubated, 37° C.; for Stability under acidic (gastric juice) conditions, in words: pH 1.2, 37° C.; for Stability under physiologic / intestinal juice conditions, in words: pH 7.4, 37° C.
Description: The stability CBD and CBD analogs (CBD-Mono-VHS and CBD-Di-VHS) was evaluated under acidic and alkaline conditions to simulate exposure to gastric and intestinal fluids. The procedure is outlined as follows: • 1. Stock solution of 5 mg/mL CBD, CBD-Mono-Val-Mono HS, CBD-Di-Val-Di HS was prepared. • 2. Simulated Gastric Fluid (pH 1.2)+1% (SDS) was prepared and kept in 37° C. water bath. • 3. Physiological buffer (pH 7.4)+1% SDS was prepared and kept in 37° C. water bath. • 4. 100 μL of CBD, CBD-Mono-Val-Mono HS or CBD-Di-Val-Di-HS stock in acetonitrile (equivalent to 500 μg) was spiked into separate vials containing 5 ml of either pH 1.2 and 7.4. • 5. At each time point, 100 μL of the solution was withdrawn. • 6. 900 μL acetonitrile was added to each sample. • 7. All samples centrifuged at 4° C. and 13,000 rpm. • 8. 100 μL of the supernatant was withdrawn; to this 100 μL of supernatant, 900 μL of acetonitrile was added and placed in LC vials for analysis. Tables 9, 10 and 11, and FIGS. 7a, 7b, 18, and 19 show the results.

[5] = Solubility of CBD and its analogs in Tocrisolve emulsion; assay type: physicochemical; details: for Maximum solubility achieved in Tocrisolve: as the substance itself
Description: Formulations: 0.5% w/v CBD equivalent in Tocrisolve emulsion.
Tocrisolve composition: […] emulsion composed of a 1:4 ratio of soya oil/water that is emulsified with the block co-polymer Pluronic F68. Manufacturing process for the Tocrisolve emulsion: • Add accurately weighed amount of drug a glass vial. • Add required volume of Torcisolve blank emulsion to each vial • Vortex each vial for 5 minutes. • Sonicate each vial for 10 minutes. • Centrifuge each vial for 5 minutes at 9000 rpm at 25° C. • Collect the supernatant and analyze for CBD, CBD-Val Mono and CBD-Val-HS mono as applicable.

[6] = Bioavailability of CBD from suppository formulations containing CBD-Val-HS (Example 15); assay type: in vivo; details: cannulated rats, rectal suppository; PEG 1000 (7 mg) vs Wecobe W (6.125 or 4.625 mg)
Description: CBD-Val-HS was formulated in both lipophilic (Wecobe W base) and hydrophilic (PEG 1000 base) suppository formulations. The formulations were administered to cannulated rats (100 mg suppository per rat) and blood samples were collected, centrifuged and the plasma separated for LC/MS/MS analysis. The amount of CBD in the plasma samples was quantified. The amount of CBD-Val-HS in the plasma samples was not quantified.

[7] = rabbit eye, 90 min post topical, 250 μg CBD equivalent

Compound: C=C(C)[C@@H]1CCC(C)=C[C@H]1c1c(O)cc(CCCCC)cc1O [CBD, Cannabidiol]
- Effect on cisplatin-induced tactile allodynia (eVF paw withdrawal), in words ([1]; Example 23, 1.0 mg/kg CBD in combination with 0.1 mg/kg morphine, IP): did not further alter the anti-allodynic properties
- Effect on cisplatin-induced tactile allodynia (eVF paw withdrawal), in words ([1]; Example 23, 1.0 mg/kg IP alone, 45 minutes prior to testing): modest attenuation of CIN
- Effect on cisplatin-induced tactile allodynia (eVF paw withdrawal), in words ([1]; Example 23, 2.0 mg/kg CBD in combination with 0.1 mg/kg morphine, IP): attenuated tactile allodynia comparable to 2.5 mg/kg morphine
- Effect on cisplatin-induced tactile allodynia (eVF paw withdrawal), in words ([1]; Example 23, 2.0 mg/kg CBD in combination with 2.5 mg/kg morphine, IP): not further enhanced
- Effect on cisplatin-induced tactile allodynia (eVF paw withdrawal), in words ([1]; Example 23, 2.0 mg/kg IP alone, 45 minutes prior to testing): ineffective
- Effect on morphine place preference, in words ([2]; morphine groups, IP, CBD 2.5-20.0 mg/kg, CBD-val-HS 10.0 mg/kg): dose-dependently decreased preference scores that approached significance at 10 mg/kg CBD; also recorded: showed a tendency to block the addictive effects of morphine
- Place preference or aversion of the substance itself, in words ([2]; saline groups, IP, CBD 2.5-20.0 mg/kg, CBD-val-HS 10.0 mg/kg): did not show neither place preference nor aversion
- concentration at 90 min ([3]; retina-choroid, Table 2, rabbit eye, 250 μg CBD equivalent, read-out: Concentration of CBD in Retina Choroid): 17.3 ± 6.5 ng/g
- Ocular tissue levels of the applied substance, in words (Example 13) ([3]; rabbit eye, 90 min post topical, 0.25 mg CBD): no levels in the tissues at all
- Ocular tissue levels, in words (Example 12) [3, 7]: very low levels in the retina choroid
- Concentration of CBD ([4]; Acid (pH 1.2), Time Point 0): 656 ng/mL
- Concentration of Δ^9-THC ([4]; Acid (pH 1.2), Time Point 0): 38 ng/mL
- Concentration of CBD ([4]; Acid (pH 1.2), Time Point 15): 553 ng/mL
- Concentration of Δ^9-THC ([4]; Acid (pH 1.2), Time Point 15): 238 ng/mL
- Concentration of CBD ([4]; Acid (pH 1.2), Time Point 30): 204 ng/mL
- Concentration of Δ^9-THC ([4]; Acid (pH 1.2), Time Point 30): 243 ng/mL
- Concentration of CBD ([4]; Acid (pH 1.2), Time Point 60): 111 ng/mL
- Concentration of Δ^9-THC ([4]; Acid (pH 1.2), Time Point 60): 496 ng/mL
- Concentration of CBD ([4]; Acid (pH 1.2), Time Point 90): 91 ng/mL
- Concentration of Δ^9-THC ([4]; Acid (pH 1.2), Time Point 90): 625 ng/mL
- Concentration of CBD ([4]; Acid (pH 1.2), Time Point 120): 46 ng/mL
- Concentration of Δ^9-THC ([4]; Acid (pH 1.2), Time Point 120): 454 ng/mL
- Concentration of CBD ([4]; Base (pH 7.4), Time Point 0): 760 ng/mL
- Concentration of CBD ([4]; Base (pH 7.4), Time Point 15): 943 ng/mL
- Concentration of CBD ([4]; Base (pH 7.4), Time Point 30): 1015 ng/mL
- Concentration of CBD ([4]; Base (pH 7.4), Time Point 60): 1119 ng/mL
- Concentration of CBD ([4]; Base (pH 7.4), Time Point 90): 1081 ng/mL
- Concentration of CBD ([4]; Base (pH 7.4), Time Point 120): 975 ng/mL
- Conversion to Δ^9-THC under acidic conditions, in words ([4]; acidic conditions): converts to Δ^9-THC
- Stability under acidic (gastric juice) conditions, in words [4]: partially converted to THC
- Stability under physiologic / intestinal juice conditions, in words [4]: stable
- Maximum solubility achieved in Tocrisolve [5]: 1.19 % w/v

Compound: C=C(C)C1CCC(C)=CC1c1c(OC(=O)CCC(=O)O)cc(CCCCC)cc1OC(=O)CCC(=O)O (stereo not shown) [CBD-HS, CBD-Di-Hemisuccinate]
- Penetration into the ocular tissues, in words (Example 14) ([3]; rabbit eye): not adequate
- Maximum solubility achieved in Tocrisolve [5]: 1.12 % w/v
- Maximum solubility achieved in Tocrisolve (In terms of CBD) [5]: (0.7) % w/v

Compound: C=C(C)C1CCC(C)=CC1c1c(OC(=O)[C@@H](NC(=O)CCC(=O)O)C(C)C)cc(CCCCC)cc1OC(=O)[C@@H](NC(=O)CCC(=O)O)C(C)C (stereo partly shown) [CBD-VAL-HS]
- concentration at 90 min ([3]; retina-choroid, Table 4, Set 2, rabbit, dose 250 μg, read-out: Analog Concentration, Retina Choroid): 142 ± 76 ng/g

Compound: C=C(C)C1CCC(C)=CC1c1c(OC(=O)[C@@H](N)C(C)C)cc(CCCCC)cc1OC(=O)[C@@H](N)C(C)C (stereo partly shown) [CBD-Val-HCl]
- concentration at 90 min ([3]; retina-choroid, Table 2, rabbit eye, 250 μg CBD equivalent, read-out: Concentration of CBD-Val in Retina Choroid): 9.1 ± 1.5 ng/g
- Ocular tissue levels, in words (Example 12) [3, 7]: very low levels in the retina choroid
- Maximum solubility achieved in Tocrisolve [5]: 2.04 % w/v
- Maximum solubility achieved in Tocrisolve (In terms of CBD) [5]: (1.09) % w/v

Compound: C=C(C)C1CCC(C)=CC1c1c(OC(=O)[C@@H](NC(=O)CCC(=O)O)C(C)C)cc(CCCCC)cc1OC(=O)[C@@H](NC(=O)CCC(=O)O)C(C)C (stereo partly shown) [CBD-Val-HS, CBD-Di-Valinate-Di-Hemisuccinate]
- Plasma levels of CBD, hydrophilic base compared with lipophilic base, in words [6]: Higher levels of CBD
- Penetration into the ocular tissues, in words (Example 14) ([3]; rabbit eye): not adequate
- Stability under acidic (gastric juice) conditions, in words [4]: stable
- Stability under physiologic / intestinal juice conditions, in words [4]: stable

Compound: C=C(C)C1CCC(C)=CC1c1c(OC(=O)[C@@H](NC(=O)CCC(=O)O)C(C)C)cc(CCCCC)cc1OC(=O)[C@@H](NC(=O)CCC(=O)O)C(C)C (stereo partly shown) [CBD-Val-HS]
- concentration at 90 min ([3]; aqueous humor, Table 2, rabbit eye, 250 μg CBD equivalent, read-out: Concentration of CBD-Val-HS in Aqueous Humor): 24.6 ± 16.2 ng/g
- concentration at 90 min ([3]; retina-choroid, Table 2, rabbit eye, 250 μg CBD equivalent, read-out: Concentration of CBD-Val-HS in Retina Choroid): 417 ± 114 ng/g
- concentration at 90 min ([3]; vitreous humor, Table 2, rabbit eye, 250 μg CBD equivalent, read-out: Concentration of CBD-Val-HS in Vitreous Humor): 612 ± 264 ng/g

Compound: C=C(C)C1CCC(C)=CC1c1c(OC(=O)[C@@H](N)C(C)C)cc(CCCCC)cc1OC(=O)[C@@H](N)C(C)C (stereo partly shown) [CBD-di-Val, CBD-Di-Valinate]
- Penetration into the ocular tissues, in words (Example 14) ([3]; rabbit eye): not adequate

Compound: CN1CC[C@]23c4c5ccc(O)c4O[C@H]2[C@@H](O)C=C[C@H]3[C@H]1C5.O=S(=O)(O)O [morphine, Morphine sulfate]
- Effect on cisplatin-induced tactile allodynia (eVF paw withdrawal), in words ([1]; Example 23, 0.1 mg/kg IP alone, 45 minutes prior to testing): did not affect eVF responses
- Effect on cisplatin-induced tactile allodynia (eVF paw withdrawal), in words ([1]; Example 23, 2.5 mg/kg IP alone, 45 minutes prior to testing): fully attenuated tactile allodynia
- Effect on cisplatin-induced tactile allodynia (eVF paw withdrawal), in words ([1]; Example 24, 0.1 mg/kg IP alone): did not affect eVF responses
- Effect on cisplatin-induced tactile allodynia (eVF paw withdrawal), in words ([1]; Example 24, 2.5 mg/kg IP alone): fully attenuated tactile allodynia
- Conditioned place preference scores, in words ([2]; morphine treated vs control group (vehicle+saline)): higher preference scores compared to the control group

Compound: CBD-Mono-Valinate [CBD-VAL-MONO]
- Maximum solubility achieved in Tocrisolve [5]: 1.41 % w/v
- Maximum solubility achieved in Tocrisolve (In terms of CBD) [5]: (1.07) % w/v

Reference: patent publication US11337950B2, “Biologically active cannabidiol analogs” (University of Mississippi, priority 2016, dated 2022)
